According to US11434226B2, “Salt and polymorph of benzopyrimidinone compound and pharmaceutical composition and use thereof” (SHANGHAI INSTITUTE OF MATERIA MEDICA, CHINESE ACADEMY OF …, priority 2017, dated 2022):
Entries after “also recorded” stand apart in the source; their conditions may differ. Counter-ions that a name gives are not always drawn. Like-named read-outs stand apart in the source and are kept apart here.

What was measured:
[1] = Comparison of compound appearance and characters (odor); format: physicochemical
Excerpt: The appearance and characters of the basic compound Z prepared in Example 16 and different salts of compound Z prepared in Examples 1-2, 5-6, 9 were observed, the results are shown in the table below: […]

[2] = Comparison of solubility of compound Z and its salts; format: physicochemical
Excerpt: An appropriate amount of the sample was weighed in a glass test tube and a selected solvent was gradually added therein to observe the clarification.

[3] = Hygroscopicity of solid forms of hydrochlorate of compound Z; format: physicochemical
Excerpt: (§1) The properties of crystalline form A prepared in Examples 11 or 12, crystalline form B prepared in Example 14 and amorphous substance prepared in Example 15 were compared, the results were shown in the following table 6.

[4] = Crystal stability of solid forms of hydrochlorate of compound Z; format: physicochemical
Excerpt: as §1

[5] = Chemical stability by stress testing (high temperature, high humidity, illumination); format: physicochemical; settings: for stability, in words: high temperature, light and high humidity conditions
Excerpt: The chemical stability of the basic compound Z prepared in Example 16 and the salts of compound Z prepared in Examples 5, 9 and 10 was compared through a stress testing, the results were shown in the table below: […]

[6] = In vivo pharmacokinetic experiment in rats; settings: by gavage
Method: The in vivo pharmacokinetic experiment in rats were carried out for the basic compound Z prepared in Example 16, the hydrochlorate of compound Z prepared in Example 9, the succinate of compound Z prepared in Example 2, the fumarate of compound Z prepared in Example 3 (administered by gavage, dose 3 mg/kg), the results were shown in FIG. 8 of the specification.

[7] = selected solvent of pH 2 (composition not named), simulated gastric fluid, thermodynamic from solid, pH = 2, read-out: Solubility
[8] = selected solvent of pH 4.5 (composition not named), aqueous buffer, thermodynamic from solid, pH = 4.5, read-out: Solubility
[9] = selected solvent of pH 6.8 (composition not named), aqueous buffer, thermodynamic from solid, pH = 6.8, read-out: Solubility
[10] = thermodynamic from solid, water (deionized), read-out: Solubility
[11] = High humidity (25° C., 92.5% RH), 5 days
[12] = High humidity (25° C., 92.5% RH), 10 days
[13] = high temperature (60° C.), 5 days
[14] = high temperature (60° C.), 10 days
[15] = illumination (4500 lx ± 500 lx), 5 days
[16] = illumination (4500 lx ± 500 lx), 10 days

Compound	odor [1]	solubility [2, 7] [mg/mL]	solubility [2, 8] [mg/mL]	solubility [2, 9] [mg/mL]	solubility [2, 10] [mg/mL]	characters ([5]; 0 days)	purity ([5]; 0 days) [%]	characters [5, 11]	purity [5, 11] [%]	characters [5, 12]	purity [5, 12] [%]	characters [5, 13]	purity [5, 13] [%]	characters [5, 14]	purity [5, 14] [%]	characters [5, 15]	purity [5, 15] [%]	characters [5, 16]	other results
CCCOc1ccc(NC(=O)CN2CCN(C)CC2)cc1-c1nc(CC)c(CC)c(=O)[nH]1.O=C(O)C(O)C(O)C(=O)O [tartrate of compound Z, 5,6-diethyl-2-[2-n-propoxy-5-(2-(4-methylpiperazin-1-yl)acetamido)phenyl]pyrimidin-4(3H)-one Tartrate]	No bad smell	> 219	> 155	> 130	> 153	–	–	–	–	–	–	–	–	–	–	–	–	–	–
CCCOc1ccc(NC(=O)CN2CCN(C)CC2)cc1-c1nc(CC)c(CC)c(=O)[nH]1.Cl [form B, 5,6-diethyl-2-[2-n-propoxy-5-(2-(4-methylpiperazin-1-yl)acetamido)phenyl]pyrimidin-4(3H)-one Hydrochlorate (Form B)]	–	–	–	–	–	–	–	–	–	–	–	–	–	–	–	–	–	–	hygroscopicity, water absorption ([3]; 65% RH): 65% RH, water absorption 3.58%; hygroscopicity, water absorption ([3]; 80% RH): 80% RH, water absorption 11.3%
CCCOc1ccc(NC(=O)CN2CCN(C)CC2)cc1-c1nc(CC)c(CC)c(=O)[nH]1 [form A, 5,6-diethyl-2-[2-n-propoxy-5-(2-(4-methylpiperazin-1-yl)acetamido)phenyl]pyrimidin-4(3H)-one hydrochloride monohydrate (Form A)]	–	–	–	–	–	–	–	–	–	–	–	–	–	–	–	–	–	–	hygroscopicity, in words [3]: low hygroscopicity; hygroscopicity, water absorption ([3]; 65% RH): 65% RH, water absorption 2.48%; hygroscopicity, water absorption ([3]; 80% RH): 80% RH, water absorption 3.41%; Crystal stability [4]: stable; Crystal stability ([4]; listed as crystal form A): stable properties
CC(=O)O.CCCOc1ccc(NC(=O)CN2CCN(C)CC2)cc1-c1nc(CC)c(CC)c(=O)[nH]1 [acetate of compound Z, 5,6-diethyl-2-[2-n-propoxy-5-(2-(4-methylpiperazin-1-yl)acetamido)phenyl]pyrimidin-4(3H)-one Acetate]	–	35.8	> 102	22.6	14	–	–	–	–	–	–	–	–	–	–	–	–	–	–
CCCOc1ccc(NC(=O)CN2CCN(C)CC2)cc1-c1nc(CC)c(CC)c(=O)[nH]1.O=C(O)/C=C\C(=O)O [maleate of compound Z, 5,6-diethyl-2-[2-n-propoxy-5-(2-(4-methylpiperazin-1-yl)acetamido)phenyl]pyrimidine-4(3H)-one Maleate]	No bad smell	6.1	21.4	46.4	5.8	–	–	–	–	–	–	–	–	–	–	–	–	–	–
CCCOc1ccc(NC(=O)CN2CCN(C)CC2)cc1-c1nc(CC)c(CC)c(=O)[nH]1 [compound Z, 5,6-diethyl-2-[2-n-propoxy-5-(2-(4-methylpiperazin-1-yl)acetamido)phenyl]pyrimidin-4(3H)-one]	Pungent odor	5.3	38.1	1.7	1.5	White	99.6	White	99.64	White	99.53	White	99.69	White	99.36	Yellowish	99.37	Yellowish	stability, in words [5]: relatively poor; solubility, in words [2]: poor solubility in water; also recorded: significantly lower
CCCOc1ccc(NC(=O)CN2CCN(C)CC2)cc1-c1nc(CC)c(CC)c(=O)[nH]1.Cl [hydrochlorate of compound Z, 5,6-diethyl-2-[2-n-propoxy-5-(2-(4-methylpiperazin-1-yl)acetamido)phenyl]pyrimidine-4(3H)-one Hydrochlorate]	No bad smell	> 22.8	> 23.6	> 26.6	> 25	White	99.77	White	99.73	White	99.77	White	99.65	White	99.71	White	99.79	White	stability, in words [5]: high stability; stability, in words ([5]; listed as hydrochlorate): stable; purity [5, 16]: 99.72%; oral bioavailability, in words ([6]; 3 mg/kg): high oral bioavailability; in vivo pharmacokinetic properties (plasma concentration-time curve, FIG. 8), in words ([6]; dose 3 mg/kg, compared with compound Z): significantly better; solubility, in words [2]: good solubility
CCCOc1ccc(NC(=O)CN2CCN(C)CC2)cc1-c1nc(CC)c(CC)c(=O)[nH]1.O=C(O)/C=C/C(=O)O [fumarate of compound Z, 5,6-diethyl-2-[2-n-propoxy-5-(2-(4-methylpiperazin-1-yl)acetamido)phenyl]pyrimidin-4(3H)-one Fumarate]	–	> 24.2	> 20.2	> 27	> 26.6	–	–	–	–	–	–	–	–	–	–	–	–	–	–
CCCOc1ccc(NC(=O)CN2CCN(C)CC2)cc1-c1nc(CC)c(CC)c(=O)[nH]1.Cl [Amorphous, 5,6-diethyl-2-[2-n-propoxy-5-(2-(4-methylpiperazin-1-yl)acetamido)phenyl]pyrimidin-4(3H)-one Hydrochloride (Amorphous)]	–	–	–	–	–	–	–	–	–	–	–	–	–	–	–	–	–	–	hygroscopicity, water absorption ([3]; 65% RH): 65% RH, water absorption 16.53%; hygroscopicity, water absorption ([3]; 80% RH): 80% RH, water absorption 6.74%
CCCOc1ccc(NC(=O)CN2CCN(C)CC2)cc1-c1nc(CC)c(CC)c(=O)[nH]1.O=C(O)CCC(=O)O [succinate of compound Z, 5,6-diethyl-2-[2-n-propoxy-5-(2-(4-methylpiperazin-1-yl)acetamido)phenyl]pyrimidin-4(3H)-one Succinate]	No bad smell	> 20.8	> 22	> 20.8	> 24.8	–	–	–	–	–	–	–	–	–	–	–	–	–	–
CCCOc1ccc(NC(=O)CN2CCN(C)CC2)cc1-c1nc(CC)c(CC)c(=O)[nH]1.CS(=O)(=O)O [methanesulfonate of compound Z, 5,6-diethyl-2-[2-n-propoxy-5-(2-(4-methylpiperazin-1-yl)acetamido)phenyl]pyrimidin-4(3H)-one Methanesulfonate]	No bad smell	> 22.4	> 25.4	> 23.2	> 23.8	White	99.66	Yellow	99.54	Yellow	99.55	White	99.54	White	99.49	White	99.72	White	purity [5, 16]: 99.46%
CCCOc1ccc(NC(=O)CN2CCN(C)CC2)cc1-c1nc(CC)c(CC)c(=O)[nH]1.O=C(O)[C@@H](O)[C@H](O)[C@H](O)[C@@H](O)C(=O)O [mucate of compound Z, 5,6-diethyl-2-[2-n-propoxy-5-(2-(4-methylpiperazin-1-yl)acetamido)phenyl]pyrimidin-4(3H)-one Mucate]	–	–	–	–	–	–	–	–	–	–	–	–	–	–	–	–	–	–	solubility ([2]; pH = 2): 36.3 mg/mL; solubility ([2]; pH = 4.5): 62.7 mg/mL; solubility ([2]; pH = 6.8): 39.0 mg/mL; solubility ([2]; water (deionized)): 10.6 mg/mL
CCCOc1ccc(NC(=O)CN2CCN(C)CC2)cc1-c1nc(CC)c(CC)c(=O)[nH]1.O=S(=O)(O)O [sulfate of compound Z, 5,6-diethyl-2-[2-n-propoxy-5-(2-(4-methylpiperazin-1-yl)acetamido)phenyl]pyrimidin-4(3H)-one Sulfate]	–	> 20.2	> 25.6	> 24.4	> 20.6	Yellow	99.63	Yellow powder	99.64	Yellow powder	99.62	Yellow	99.59	Yellow	99.64	Yellow	97.43	Gray-yellow	purity [5, 16]: 96.99%
